Test results reported in the NIST ThermoML archive (doi:10.1021/je600519p).
± gives the expanded uncertainty stated by the source.

Test: xn = mol fraction of the nth substance listed
Conditions: 101 kPa, Liquid

CC(=O)c1ccccc1 [acetophenone] + CCCCCCO
Conditions	mass density, 293.15 K [kg/m3]	mass density, 303.15 K [kg/m3]	speed of sound, 293.15 K [m/s]	speed of sound, 303.15 K [m/s]	viscosity, 293.15 K [mPa·s]	viscosity, 303.15 K [mPa·s]
x1 = 0.0498	828.69 ± 0.73	821.41 ± 0.74	1316 ± 11	1285 ± 11	4.831 ± 0.21	3.559 ± 0.16
x1 = 0.1009	838.84 ± 0.71	831.48 ± 0.72	1323 ± 11	1293 ± 11	4.397 ± 0.19	3.262 ± 0.15
x1 = 0.1517	848.99 ± 0.69	841.54 ± 0.7	1331 ± 11	1302 ± 11	3.997 ± 0.18	2.989 ± 0.13
x1 = 0.2106	860.83 ± 0.66	853.28 ± 0.68	1341 ± 11	1313 ± 11	3.605 ± 0.16	2.725 ± 0.12
x1 = 0.2474	868.27 ± 0.65	860.66 ± 0.66	1348 ± 11	1320 ± 11	3.31 ± 0.15	2.511 ± 0.11
x1 = 0.3028	879.53 ± 0.63	871.83 ± 0.64	1358 ± 11	1332 ± 11	2.986 ± 0.13	2.306 ± 0.11
x1 = 0.3426	887.67 ± 0.61	879.89 ± 0.63	1365 ± 11	1340 ± 11	2.744 ± 0.12	2.148 ± 0.099
x1 = 0.3978	899.01 ± 0.59	891.14 ± 0.6	1375 ± 11	1351 ± 11	2.491 ± 0.11	1.961 ± 0.091
x1 = 0.4512	910.05 ± 0.57	902.09 ± 0.58	1385 ± 11	1362 ± 11	2.266 ± 0.1	1.805 ± 0.084
x1 = 0.4985	919.88 ± 0.55	911.85 ± 0.56	1394 ± 11	1371 ± 11	2.085 ± 0.096	1.692 ± 0.079
x1 = 0.5526	931.2 ± 0.53	923.08 ± 0.54	1404 ± 11	1382 ± 11	1.93 ± 0.09	1.583 ± 0.075
x1 = 0.6071	942.67 ± 0.5	934.47 ± 0.52	1415 ± 11	1393 ± 11	1.798 ± 0.084	1.488 ± 0.071
x1 = 0.6491	951.55 ± 0.49	943.29 ± 0.5	1424 ± 11	1402 ± 11	1.744 ± 0.082	1.442 ± 0.069
x1 = 0.7101	964.53 ± 0.46	956.19 ± 0.48	1437 ± 11	1414 ± 11	1.65 ± 0.078	1.431 ± 0.068
x1 = 0.7485	972.75 ± 0.45	964.35 ± 0.46	1445 ± 11	1421 ± 11	1.664 ± 0.078	1.426 ± 0.068
x1 = 0.8019	984.23 ± 0.42	975.77 ± 0.44	1457 ± 12	1430 ± 11	1.673 ± 0.079	1.455 ± 0.069
x1 = 0.8521	995.09 ± 0.4	986.56 ± 0.42	1467 ± 12	1439 ± 11	1.691 ± 0.079	1.465 ± 0.07
x1 = 0.9045	1006.5 ± 0.41	997.88 ± 0.4	1476 ± 12	1445 ± 11	1.71 ± 0.08	1.48 ± 0.07
x1 = 0.9554	1017.63 ± 0.44	1008.95 ± 0.42	1485 ± 12	1451 ± 12	1.727 ± 0.081	1.496 ± 0.071
